# Measured values reported in US20120251527A1, “PODOCYTE SPECIFIC ASSAYS AND USES THEREOF” (University of Miami, priority 2009, published 2012).
# Tested on: NFAT
# Assay: Podocyte-NFAT reporter assay (luciferase)
# Assay type: cell-based, mouse
# Conditions: for baseline NFAT activity: wild type (wt) podocytes, single inhibitor, FIG. 8
# Description: Podocyte-NFAT reporter assays: A podocyte cell line that stably expressed pGL4.30 reporter plasmid (Promega) was generated. pGL4.30 includes the luc2P firefly luciferase gene under the control of the NFAT response element. For LPS treatments both wt and stable TRPC6 knockdown podocyte cell line were transiently transfected with the pGL4.30 and pGL4.74 reporter plasmids (Promega). pGL4.74 includes the hRluc Renilla luciferase gene under the control of the constitutive HSV-TK promoter, serving as an internal control for normalization of the results. Cells were seeded in 96 well plates in standardized cell number and differentiated for three weeks prior to transfection and treatments. Stable cell lines were probed with BRIGHT-GLO Luciferase Assay System (Promega), transiently transfected cells were assayed with DUAL-GLO Luciferase Assay System (Promega). Luminescence was measured on a Molecular Devices luminescence microplate reader SpectraMax L. All experiments were carried out in octuplicate per condition and repeated in three independent experiments.
Molecule,"NFAT activity after pretreatment with the substance (wt podocytes, versus low baseline, FIG. 6A)",baseline NFAT activity
lipopolysaccharide [LPS],strongly increased,
CN([C@@H](Cc1ccc(OS(=O)(=O)c2cccc3cnccc23)cc1)C(=O)N1CCN(c2ccccc2)CC1)S(=O)(=O)c1cccc2cnccc12 [KN-62],,reduction
O=S(=O)(NCCNC/C=C/c1ccc(Br)cc1)c1cccc2cnccc12 [H-89],,reduction
